The source of these data is US20240059691A1 (KALVISTA PHARMACEUTICALS LIMITED, priority 2020, published 2024).

Holding throughout (format): biochemical
One assay addresses FXIa (Homo sapiens (Human), UniProt P03951). The assay can be described thus: Determination of related protease inhibition: FXIa (fixed substrate concentration of 100 μM). Conditions: 25° C. The procedure:
Determination of Related Protease Inhibition
In vitro inhibition of related proteases was determined using an ([…] assay based on standard literature methods (see e.g. Shori et al., Biochem. Pharmacol., 1992, 43, 1209; Bouckaert et al., European Journal of Medicinal Chemistry 110 (2016) 181). Human serine protease enzymes Plasma Kallikrein, KLK1, FXa, Plasmin, Thrombin and Trypsin were assayed for enzymatic activity using an appropriate fluorogenic substrate at Km concentration, FXIa at fixed substrate concentration of 100 μM, and various concentrations of the test compound. Protease activity was measured by monitoring the accumulation of liberated fluorescence from the substrate over […]. The linear rate of fluorescence increase per minute was expressed as percentage (%) activity. IC50 values were calculated as the concentration of inhibitor giving 50% inhibition of the uninhibited enzyme activity (100%).

A further assay has as its target Plasma Kallikrein (Homo sapiens (Human), UniProt P03952). The assay can be described thus: Determination of related protease inhibition: Plasma Kallikrein (fluorogenic substrate at Km). As to conditions: 25° C., read-out: IC50 (human PKal). An outline of the steps: (§1)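 Human protease + fluorogenic substrate (at Km) + test cpd, varied concns; fluorescence kinetic read 5 min, 25 °C. Linear slope → % activity vs uninhibited control; IC50 at 50% inhibition.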

The target of the next assay is Thrombin (Homo sapiens (Human), UniProt P00734). Briefly: Determination of related protease inhibition: Thrombin (fluorogenic substrate at Km). As to conditions: 25° C. An outline of the steps: as §1
A further assay concerns the target FXa (Homo sapiens (Human), UniProt P00742). The assay can be described thus: Determination of related protease inhibition: FXa (fluorogenic substrate at Km). Conditions: 25° C. An outline of the steps: as §1
Another assay deals with Human Factor XIIa (Homo sapiens (Human), UniProt P00748). The assay can be described thus: Determination of FXIIa inhibition (fluorogenic substrate H-DPro-Phe-Arg-AFC, IC50 assay). As to conditions: substrate H-DPro-Phe-Arg-AFC at Km, 25° C.; class scale A-G. An outline of the steps:
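Human FXIIa incubated at 25° C with fluorogenic substrate H-DPro-Phe-Arg-AFC at its Km concentration and varying compound concentrations. Fluorescence release monitored over 5 min at 25° C; linear rate expressed as % of uninhibited activity to derive IC50.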

For a further assay, the target named is KLK1 (Homo sapiens (Human), UniProt P06870). Briefly: Determination of related protease inhibition: KLK1 (fluorogenic substrate at Km). Conditions: 25° C. An outline of the steps: as §1
Chain of KLK1 (P06870 25-262): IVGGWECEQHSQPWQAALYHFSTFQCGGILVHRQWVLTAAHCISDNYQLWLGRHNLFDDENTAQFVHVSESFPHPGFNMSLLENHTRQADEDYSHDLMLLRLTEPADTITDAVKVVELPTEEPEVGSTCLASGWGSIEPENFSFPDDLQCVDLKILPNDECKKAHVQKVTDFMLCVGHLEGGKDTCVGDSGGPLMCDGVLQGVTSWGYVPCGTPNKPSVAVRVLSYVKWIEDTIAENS

Chain of FXIa (P03951 388-625): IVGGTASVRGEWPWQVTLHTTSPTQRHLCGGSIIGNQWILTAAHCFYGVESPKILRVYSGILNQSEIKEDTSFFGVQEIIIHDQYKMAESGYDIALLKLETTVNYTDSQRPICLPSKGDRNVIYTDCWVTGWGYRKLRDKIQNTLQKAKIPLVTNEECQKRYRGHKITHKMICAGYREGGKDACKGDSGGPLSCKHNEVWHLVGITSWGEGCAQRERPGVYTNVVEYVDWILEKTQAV
Chain of FXIa (P03951 19-387 partner): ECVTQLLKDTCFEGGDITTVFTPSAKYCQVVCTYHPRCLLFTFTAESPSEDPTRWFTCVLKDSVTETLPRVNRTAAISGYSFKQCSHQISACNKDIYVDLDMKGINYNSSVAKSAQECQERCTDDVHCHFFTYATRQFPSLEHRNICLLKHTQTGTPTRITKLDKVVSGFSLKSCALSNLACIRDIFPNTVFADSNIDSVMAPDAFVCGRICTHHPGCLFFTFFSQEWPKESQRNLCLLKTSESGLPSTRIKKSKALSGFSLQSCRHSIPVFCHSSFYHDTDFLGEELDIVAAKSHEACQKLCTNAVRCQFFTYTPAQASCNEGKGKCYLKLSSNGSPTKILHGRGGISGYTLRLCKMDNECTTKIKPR
Chain of Plasma Kallikrein (P03952 391-638): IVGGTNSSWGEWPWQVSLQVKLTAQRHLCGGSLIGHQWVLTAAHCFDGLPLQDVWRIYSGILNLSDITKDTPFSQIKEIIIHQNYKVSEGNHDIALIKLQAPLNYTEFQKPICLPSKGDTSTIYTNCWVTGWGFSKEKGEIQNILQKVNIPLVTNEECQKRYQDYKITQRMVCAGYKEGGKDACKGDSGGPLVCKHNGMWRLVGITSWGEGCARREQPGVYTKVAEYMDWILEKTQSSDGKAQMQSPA
Chain of Plasma Kallikrein (P03952 20-390 partner): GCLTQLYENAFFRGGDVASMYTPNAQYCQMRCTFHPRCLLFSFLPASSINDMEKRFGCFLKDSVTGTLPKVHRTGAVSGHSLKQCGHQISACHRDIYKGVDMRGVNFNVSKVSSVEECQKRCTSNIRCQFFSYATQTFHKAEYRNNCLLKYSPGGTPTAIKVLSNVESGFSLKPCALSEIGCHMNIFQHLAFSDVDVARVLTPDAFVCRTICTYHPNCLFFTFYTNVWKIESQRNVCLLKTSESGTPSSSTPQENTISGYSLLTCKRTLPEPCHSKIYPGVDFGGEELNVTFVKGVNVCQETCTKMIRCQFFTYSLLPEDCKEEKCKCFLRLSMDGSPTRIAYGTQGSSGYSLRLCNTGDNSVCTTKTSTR
Chain of Human Factor XIIa (P00748 373-615): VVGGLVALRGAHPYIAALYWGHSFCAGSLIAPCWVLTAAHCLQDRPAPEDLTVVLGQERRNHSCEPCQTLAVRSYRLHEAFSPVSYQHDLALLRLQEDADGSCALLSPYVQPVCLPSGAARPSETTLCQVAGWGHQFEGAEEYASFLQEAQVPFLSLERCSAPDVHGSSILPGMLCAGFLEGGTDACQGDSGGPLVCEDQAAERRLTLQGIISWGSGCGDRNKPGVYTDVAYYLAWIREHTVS
Chain of FXa (P00742 235-488): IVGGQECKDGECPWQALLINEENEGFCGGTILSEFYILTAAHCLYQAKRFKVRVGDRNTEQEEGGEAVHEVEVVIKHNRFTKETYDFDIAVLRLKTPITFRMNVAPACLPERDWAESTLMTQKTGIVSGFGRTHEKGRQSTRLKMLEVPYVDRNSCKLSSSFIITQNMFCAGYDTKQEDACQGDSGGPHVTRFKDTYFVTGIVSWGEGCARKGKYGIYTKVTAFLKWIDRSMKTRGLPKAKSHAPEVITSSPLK
Chain of FXa (P00742 41-179 partner): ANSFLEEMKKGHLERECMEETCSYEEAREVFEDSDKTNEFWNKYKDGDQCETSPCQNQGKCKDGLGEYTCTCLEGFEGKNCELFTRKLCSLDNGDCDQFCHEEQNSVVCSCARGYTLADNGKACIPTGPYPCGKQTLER

Regarding `CN1CCC(COc2ncc(CNc3ccc4c(N)nccc4c3)cn2)CC1` [Example 1013, 6-N-({2-[(1-methylpiperidin-4-yl)methoxy]pyrimidin-5-yl}methyl)isoquinoline-1,6-diamine], the IC50 against FXIa was more than 20 µM; at Plasma Kallikrein, 3 to 10 µM; against Thrombin, 3 to 10 µM; on FXa, 3 to 10 µM; on Human Factor XIIa, 0.1 to 0.3 µM.
Regarding `CCN1CCC(OCc2ccc(CNc3cccc4c(N)nccc34)c(F)c2)CC1` [Example 2201, 5-N-[(4-{[(1-ethylpiperidin-4-yl)oxy]methyl}-2-fluorophenyl)methyl]isoquinoline-1,5-diamine], the IC50 at FXIa is more than 20 µM; on Plasma Kallikrein, 10 to 40 µM; at Thrombin, more than 20 µM; against FXa, more than 20 µM; against Human Factor XIIa it was 0.01 to 0.1 µM.
Regarding `CN1CCC(OCc2ccc(CNc3ccc4cnccc4c3)cc2)CC1` [Example 2193, N-(4-(((1-methylpiperidin-4-yl)oxy)methyl)benzyl)isoquinolin-6-amine], the IC50 at FXIa is more than 20 µM; on Plasma Kallikrein it was more than 20 µM; on Thrombin, more than 20 µM; on FXa, more than 20 µM; against Human Factor XIIa, 3 to 10 µM.
In the case of `CN1CCC(OCc2ccc(CNc3ccc4c(N)nccc4c3)cc2)C(F)(F)C1` (stereo not shown) [Example 2194, N6-(4-(((3,3-difluoro-1-methylpiperidin-4-yl)oxy)methyl)benzyl)isoquinoline-1,6-diamine], the IC50 against FXIa was more than 40 µM; on Plasma Kallikrein it was 10 to 40 µM; on Thrombin, 10 to 40 µM; against FXa it was 10 to 40 µM; against Human Factor XIIa, 1 to 3 µM.
For the compound `CCN1CCC(COc2ccc(CNc3ccc4c(N)nccc4c3)cn2)CC1` [Example 1010, 6-N-({6-[(1-ethylpiperidin-4-yl)methoxy]pyridin-3-yl}methyl)isoquinoline-1,6-diamine], the IC50 against FXIa is more than 40 µM; on Plasma Kallikrein it was 3 to 10 µM; against Thrombin, 10 to 40 µM; on FXa, 10 to 40 µM; against Human Factor XIIa it was 0.1 to 0.3 µM.
With `CN1CCC(COc2ccc(CNc3ccc4c(N)nccc4c3)cn2)CC1` [Example 1005, N6-((6-((1-methylpiperidin-4-yl)methoxy)pyridin-3-yl)methyl)isoquinoline-1,6-diamine], the IC50 against FXIa is more than 40 µM; at Plasma Kallikrein, 3 to 10 µM; against Thrombin, 10 to 40 µM; against FXa, 3 to 10 µM; on Human Factor XIIa, 0.1 to 0.3 µM.
Regarding `CN1CCC(OCc2ccc(CNc3ccc4c(N)nccc4c3)cc2)CC1` [Example 2185, N6-(4-(((1-methylpiperidin-4-yl)oxy)methyl)benzyl)isoquinoline-1,6-diamine], the IC50 against FXIa was more than 40 µM; at Plasma Kallikrein, 3 to 10 µM; against Thrombin, 3 to 10 µM; against FXa, 3 to 10 µM; at Human Factor XIIa, 0.1 to 0.3 µM.
As to `Nc1nccc2cc(NCc3ccnc(-c4cccc(CN5CCCC5)c4)c3)ccc12` [Example 5434, N6-((2-(3-(pyrrolidin-1-ylmethyl)phenyl)pyridin-4-yl)methyl)isoquinoline-1,6-diamine], the IC50 was more than 40 µM against FXIa; 1 to 3 µM at Plasma Kallikrein; 1 to 3 µM on Thrombin; 1 to 3 µM against FXa; 1 to 3 µM at Human Factor XIIa.
Consider `CN1CC2C[C@@H]1C[C@H]2OCc1ccc(CNc2ccc3c(N)nccc3c2)c(F)c1` (single isomer, unassigned) [Example 2199, N6-(2-fluoro-4-((((4R*,5R*)-2-methyl-2-azabicyclo[2.2.1]heptan-5-yl)oxy)methyl)benzyl)isoquinoline-1,6-diamine], for which the IC50 on FXIa was more than 20 µM; on Plasma Kallikrein, 3 to 10 µM; against Thrombin, 10 to 40 µM; at FXa it was 3 to 10 µM; against Human Factor XIIa, 0.01 to 0.1 µM.
Regarding `CN1CCC(COc2ccc(CNc3ccc4cnccc4c3)cn2)CC1` [Example 1008, N-((6-((1-methylpiperidin-4-yl)methoxy)pyridin-3-yl)methyl)isoquinolin-6-amine], the IC50 against FXIa was more than 20 µM; at Plasma Kallikrein it was 10 to 40 µM; on Thrombin, more than 20 µM; against FXa, more than 20 µM; on Human Factor XIIa, 3 to 10 µM.
Regarding `Nc1nccc2cc(NCc3ccc(COC4CCN(C5CC5)CC4)cc3)ccc12` [Example 2195, 6-N-[(4-{[(1-cyclopropylpiperidin-4-yl)oxy]methyl}phenyl)methyl]isoquinoline-1,6-diamine], the IC50 against FXIa is more than 40 µM; on Plasma Kallikrein, 3 to 10 µM; on Thrombin it was 10 to 40 µM; on FXa, 10 to 40 µM; against Human Factor XIIa, 0.3 to 1 µM.
Take `CN1CC2C[C@H]1C[C@H]2OCc1ccc(CNc2ccc3c(N)nccc3c2)c(F)c1` (single isomer, unassigned) [Example 2198, N6-(2-fluoro-4-((((4S*,5R*)-2-methyl-2-azabicyclo[2.2.1]heptan-5-yl)oxy)methyl)benzyl)isoquinoline-1,6-diamine]: the IC50 at FXIa was more than 20 µM; on Plasma Kallikrein, 3 to 10 µM; against Thrombin it was 10 to 40 µM; on FXa, 3 to 10 µM; against Human Factor XIIa, 0.1 to 0.3 µM.
As to `Cn1ccnc1CCOc1cc(CNc2ccc3c(N)nccc3c2)ccn1` [Example 4283, 6-N-({2-[2-(1-methylimidazol-2-yl)ethoxy]pyridin-4-yl}methyl)isoquinoline-1,6-diamine], the IC50 on Plasma Kallikrein was 3 to 10 µM; against Thrombin it was 1 to 3 µM; against FXa, 3 to 10 µM; on Human Factor XIIa, 1 to 3 µM; against KLK1 it was 0.3 to 1 µM.
As to `Cn1ccnc1CCOc1cc(CNc2cccc3c(N)nccc23)ccn1` [Example 4282, 5-N-({2-[2-(1-methylimidazol-2-yl)ethoxy]pyridin-4-yl}methyl)isoquinoline-1,5-diamine], the IC50 at Plasma Kallikrein is more than 40 µM; against Thrombin, more than 40 µM; against FXa it was 10 to 40 µM; at Human Factor XIIa it was 1 to 3 µM; against KLK1, 3 to 10 µM.
As to `CN1CC2CCC(C1)C2COc1cc(CNc2cccc3c(N)nccc23)ccn1` (stereo not shown) [Example 4278, 5-N-[[2-[(3-methyl-3-azabicyclo[3.2.1]octan-8-yl)methoxy]-4-pyridyl]methyl]isoquinoline-1,5-diamine], the IC50 at Plasma Kallikrein was more than 40 µM; against Thrombin it was more than 40 µM; on FXa, 1 to 3 µM; against Human Factor XIIa, 0.1 to 0.3 µM; against KLK1, 3 to 10 µM.
In the case of `Nc1nccc2c(NCc3ccc(CN4CCOCC4)cc3F)cccc12` [Example 1034, 5-N-{[2-fluoro-4-(morpholin-4-ylmethyl)phenyl]methyl}isoquinoline-1,5-diamine], the IC50 on Plasma Kallikrein is more than 40 µM; against Thrombin, more than 40 µM; at FXa it was more than 40 µM; against Human Factor XIIa, 10 to 40 µM; against KLK1, 10 to 40 µM.
For the compound `CN1[C@@H]2COC[C@H]1CC(OCc1ccc(CNc3cccc4c(N)nccc34)c(F)c1)C2` (stereo partly drawn) [Example 2254, N5-(2-fluoro-4-((((1R,5S)-9-methyl-3-oxa-9-azabicyclo[3.3.1]nonan-7-yl)oxy)methyl)benzyl)isoquinoline-1,5-diamine], the IC50 at Plasma Kallikrein is more than 40 µM; against Thrombin it was more than 40 µM; on FXa, 10 to 40 µM; against Human Factor XIIa, 0.1 to 0.3 µM; at KLK1, 10 to 40 µM.
As for `CC(C)N1C[C@H]2C[C@@H]1CN2Cc1cc(CNc2cccc3c(N)nccc23)ccn1` [Example 4294, 5-N-[(2-{[(1R,4R)-5-isopropyl-2,5-diazabicyclo[2.2.1]heptan-2-yl]methyl}pyridin-4-yl)methyl]isoquinoline-1,5-diamine], the IC50 at Plasma Kallikrein is more than 40 µM; at Thrombin it was more than 40 µM; on FXa, more than 40 µM; on Human Factor XIIa, 10 to 40 µM; at KLK1 it was 10 to 40 µM.
`CN1CCN(CCc2ccc(CNc3ccc4c(N)nccc4c3)c(F)c2)CC1` [Example 2181, 6-N-({2-fluoro-4-[2-(4-methylpiperazin-1-yl)ethyl]phenyl}methyl)isoquinoline-1,6-diamine]: the IC50 lay within 10 to 40 µM at Plasma Kallikrein; 3 to 10 µM against Thrombin; 10 to 40 µM on FXa; 0.3 to 1 µM on Human Factor XIIa; 0.3 to 1 µM against KLK1.
Take `CN1CC2(CC(OCc3ccc(CNc4cccc5c(N)nccc45)c(F)c3)C2)C1` [Example 2206, 5-N-[[2-fluoro-4-[(2-methyl-2-azaspiro[3.3]heptan-6-yl)oxymethyl]phenyl]methyl]isoquinoline-1,5-diamine]: the IC50 on Plasma Kallikrein was 10 to 40 µM; at Thrombin, more than 40 µM; against FXa, more than 40 µM; on Human Factor XIIa it was 3 to 10 µM; on KLK1, 10 to 40 µM.

In general, IC50 refers to the concentration at which inhibition is half-maximal.
